Values after ≈ are worked out from the molar mass of the structure shown.

Data set [1] can be described thus: Oral bioavailability in rat. Format: ADME, organism-based. Particulars: in vivo.
The target of data set [2] is Vasopressin V1a receptor (Homo sapiens, UniProt P37288). As to the kind of experiment: Displacement of [3H]vasopressin from human vasopressin V1a receptor expressed in CHO cells. Format: cell-based. (Displacement assays read how much labelled ligand stays bound in the presence of the test substance.)
For data set [3], the target named is T1, Oxytocin receptor (Rattus norvegicus, UniProt P70536).
T1 sequence (P70536 whole entry): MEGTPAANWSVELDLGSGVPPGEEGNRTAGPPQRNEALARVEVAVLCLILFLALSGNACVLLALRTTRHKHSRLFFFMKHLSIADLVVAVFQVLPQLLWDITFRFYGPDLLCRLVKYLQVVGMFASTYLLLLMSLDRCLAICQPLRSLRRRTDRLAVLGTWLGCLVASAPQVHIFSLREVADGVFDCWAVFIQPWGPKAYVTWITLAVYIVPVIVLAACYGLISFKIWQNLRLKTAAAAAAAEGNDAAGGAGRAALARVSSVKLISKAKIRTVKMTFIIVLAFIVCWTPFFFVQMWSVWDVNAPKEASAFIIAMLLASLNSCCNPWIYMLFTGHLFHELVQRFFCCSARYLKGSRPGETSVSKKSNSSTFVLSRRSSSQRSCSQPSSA
Put plainly: Displacement of [3H]-oxytocin from rat oxytocin receptor expressed in CHO cells. Format: cell-based.

In data set [4] the test system is Rattus norvegicus. As to the kind of experiment: Inhibition of oxytocin-induced uterine contraction in po dosed rat. The class given is functional.
Data set [5] is described as follows: Protein binding in human serum. The class given is ADME, cell-free. To be noted: read-out: PB (converted).
Data set [6] has as its system Rattus norvegicus. As to the kind of experiment: Inhibition of oxytocin-induced uterine contraction in non-pregnant rat at 30 mg/kg, po. The class given is functional.
For data set [7], the system named is Rattus norvegicus. As to the kind of experiment: Inhibition of oxytocin-induced uterine contraction in pregnant rat at 60 mg/kg, po. The class given is functional.
Data set [8] concerns Homo sapiens. Put plainly: Toxicity in human assessed as tolerated dosed. Format: organism-based. Particulars: in vivo.
Data set [9] is described as follows: Half life in human. Format: ADME, organism-based. Particulars: in vivo.
Data set [10] is described as follows: Clearance in human. The class given is ADME, organism-based. Particulars: in vivo.
The nature of data set [11]: Clearance in dog. The class given is ADME, organism-based, Canis lupus familiaris. Particulars: in vivo.
Data set [12] is described as follows: Solubility of the compound at pH 7.4. The class given is physicochemical. Particulars: buffer.
A short description of data set [13]: Oral bioavailability in human. The class given is ADME, organism-based. Particulars: in vivo.
Data set [14] is filed under the species Homo sapiens. Put plainly: Selectivity ratio of Ki for human oxytocin receptor Ki for human vasopressin V1a receptor.
Data set [15] is filed under the species Homo sapiens. As to the kind of experiment: Selectivity ratio of Ki for human oxytocin receptor Ki for human vasopressin V2 receptor.
The target of the next data set is T2, Vasopressin V1b receptor (Homo sapiens, UniProt P47901).
T2 sequence (P47901 whole entry): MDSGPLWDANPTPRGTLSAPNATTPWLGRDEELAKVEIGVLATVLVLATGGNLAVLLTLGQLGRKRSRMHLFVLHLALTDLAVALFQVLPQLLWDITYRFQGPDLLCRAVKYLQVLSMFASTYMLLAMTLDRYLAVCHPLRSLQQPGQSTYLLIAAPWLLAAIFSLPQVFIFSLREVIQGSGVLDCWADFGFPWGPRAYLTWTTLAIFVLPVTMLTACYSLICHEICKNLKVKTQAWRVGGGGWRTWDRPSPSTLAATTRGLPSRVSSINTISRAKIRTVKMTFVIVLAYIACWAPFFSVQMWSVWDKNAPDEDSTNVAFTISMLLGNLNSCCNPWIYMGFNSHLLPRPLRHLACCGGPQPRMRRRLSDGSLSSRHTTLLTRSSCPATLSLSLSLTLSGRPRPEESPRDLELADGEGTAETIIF
Put plainly: Displacement of [3H]vasopressin from human vasopressin V1b receptor expressed in CHO cells. The class given is cell-based.

Data set [16] in a line: Clearance in rat. The class given is ADME, organism-based. To be noted: in vivo.
Data set [17] has as its target T3, Oxytocin receptor (Homo sapiens, UniProt P30559).
T3 sequence (P30559 whole entry): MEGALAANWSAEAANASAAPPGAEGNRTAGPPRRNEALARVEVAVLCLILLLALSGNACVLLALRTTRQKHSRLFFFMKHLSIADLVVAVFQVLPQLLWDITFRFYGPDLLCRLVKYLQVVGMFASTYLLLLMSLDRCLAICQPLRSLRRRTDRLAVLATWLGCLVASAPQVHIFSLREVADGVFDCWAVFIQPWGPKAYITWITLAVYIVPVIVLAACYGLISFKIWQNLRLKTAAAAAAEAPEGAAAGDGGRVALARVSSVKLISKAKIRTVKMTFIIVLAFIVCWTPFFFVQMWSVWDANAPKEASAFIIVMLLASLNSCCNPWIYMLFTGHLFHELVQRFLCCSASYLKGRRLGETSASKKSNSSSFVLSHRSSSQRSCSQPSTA
Put plainly: Displacement of [3H]-oxytocin from human oxytocin receptor expressed in CHO cells. The class given is cell-based.

Data set [18] has as its target Vasopressin V2 receptor (Homo sapiens, UniProt P30518). Put plainly: Displacement of [3H]vasopressin from human vasopressin V2 receptor expressed in CHO cells. Format: cell-based.
In data set [19] the target is T1, Oxytocin receptor. Put plainly: Antagonist activity at oxytocin receptor in rat uterine strips assessed as inhibition of oxytocin-induced contraction. Particulars: read-out: pA2 (converted). The class given is functional.
Data set [20] addresses Vasopressin V1a receptor (Rattus norvegicus, UniProt P30560). Put plainly: Displacement of [3H]vasopressin from rat vasopressin V1a receptor in liver tissue.
The target of data set [21] is Vasopressin V2 receptor (Rattus norvegicus, UniProt Q00788). Put plainly: Displacement of [3H]vasopressin from rat vasopressin V2 receptor in kidney tissue.
Chain of Vasopressin V2 receptor (Rattus norvegicus, UniProt Q00788) (Q00788 whole entry): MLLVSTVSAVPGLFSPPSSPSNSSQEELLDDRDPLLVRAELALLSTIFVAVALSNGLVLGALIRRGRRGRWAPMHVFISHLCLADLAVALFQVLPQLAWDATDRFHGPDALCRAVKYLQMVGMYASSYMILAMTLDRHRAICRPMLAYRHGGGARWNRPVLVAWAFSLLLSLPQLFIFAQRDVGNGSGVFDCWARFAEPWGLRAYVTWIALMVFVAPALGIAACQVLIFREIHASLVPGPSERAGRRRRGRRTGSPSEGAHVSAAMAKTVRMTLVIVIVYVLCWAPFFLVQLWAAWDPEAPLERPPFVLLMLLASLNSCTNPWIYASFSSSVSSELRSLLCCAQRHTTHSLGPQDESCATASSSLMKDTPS

Chain of Vasopressin V1a receptor (Homo sapiens, UniProt P37288) (P37288 whole entry): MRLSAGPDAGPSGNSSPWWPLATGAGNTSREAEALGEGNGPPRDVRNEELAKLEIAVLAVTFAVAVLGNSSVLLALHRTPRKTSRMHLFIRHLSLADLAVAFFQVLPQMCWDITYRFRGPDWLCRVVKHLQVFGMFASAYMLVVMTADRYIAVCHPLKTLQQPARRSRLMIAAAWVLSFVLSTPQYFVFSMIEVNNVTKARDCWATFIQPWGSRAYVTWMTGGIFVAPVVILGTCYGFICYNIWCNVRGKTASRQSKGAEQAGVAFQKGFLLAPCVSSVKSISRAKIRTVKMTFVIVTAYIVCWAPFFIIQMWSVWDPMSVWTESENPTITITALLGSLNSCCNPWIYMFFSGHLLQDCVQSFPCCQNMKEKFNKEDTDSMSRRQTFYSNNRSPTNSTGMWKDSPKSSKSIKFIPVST
Chain of Vasopressin V2 receptor (Homo sapiens, UniProt P30518) (P30518 whole entry): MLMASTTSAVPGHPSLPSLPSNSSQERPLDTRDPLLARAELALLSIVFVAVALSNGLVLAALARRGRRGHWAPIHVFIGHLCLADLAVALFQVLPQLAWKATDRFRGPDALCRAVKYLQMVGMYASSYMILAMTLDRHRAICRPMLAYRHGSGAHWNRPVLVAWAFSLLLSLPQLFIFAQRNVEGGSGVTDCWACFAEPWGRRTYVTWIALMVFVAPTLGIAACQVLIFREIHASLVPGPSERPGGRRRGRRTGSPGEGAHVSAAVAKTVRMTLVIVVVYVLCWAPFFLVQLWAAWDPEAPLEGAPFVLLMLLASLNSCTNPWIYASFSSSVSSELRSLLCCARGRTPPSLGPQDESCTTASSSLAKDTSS
Chain of Vasopressin V1a receptor (Rattus norvegicus, UniProt P30560) (P30560 whole entry): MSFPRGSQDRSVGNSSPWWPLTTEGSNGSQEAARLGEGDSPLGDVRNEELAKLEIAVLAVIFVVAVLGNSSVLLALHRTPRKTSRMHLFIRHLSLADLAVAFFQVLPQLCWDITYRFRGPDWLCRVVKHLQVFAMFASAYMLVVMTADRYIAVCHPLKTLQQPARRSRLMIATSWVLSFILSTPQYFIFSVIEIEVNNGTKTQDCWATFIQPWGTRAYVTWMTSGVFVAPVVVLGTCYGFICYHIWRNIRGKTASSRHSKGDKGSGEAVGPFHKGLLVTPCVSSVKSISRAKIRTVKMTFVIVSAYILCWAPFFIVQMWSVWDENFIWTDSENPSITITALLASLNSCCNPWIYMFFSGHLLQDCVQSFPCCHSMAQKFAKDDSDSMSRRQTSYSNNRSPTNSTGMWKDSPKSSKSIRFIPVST

The bioavailability is the share of a dose that reaches the circulation, judged against a reference dose that is usually intravenous. The term Ki denotes a measure of affinity in units of concentration, obtained from inhibition or displacement. The ED50 is the dose that gives a 50% effect, or the effect in half of the subjects. By inhibition in vivo is commonly meant the change of the read-out against control, counted positive when it falls. The molecule `CO/N=C1/C[C@@H](CO)N(C(=O)c2ccc(-c3ccccc3C)cc2)C1` [NOLASIBAN] yielded a bioavailability in data set [1] of 55%. Also, the Ki came out at 330 nM on Vasopressin V1a receptor [2] and 210 nM at Oxytocin receptor [3]. In the data set with Rattus norvegicus [4], the ED50 was 30 mg/kg. Also, the fraction unbound in [5] was 0.29. In addition, in the data set with Rattus norvegicus [6], the inhibition in vivo at 30 mg/kg came to 51%. This molecule returned an inhibition in vivo at 60 mg/kg with Rattus norvegicus [7] of 40%.
The half-life is the time needed for the level to fall by half in the phase considered. The low end stands for fast loss, the high end for slow loss. A word on the clearance: it is the rate of elimination divided by the concentration. Low readings indicate a low capacity for elimination, high ones a high capacity for elimination. Broadly, the solubility is how much of the substance goes into solution per volume. Higher therefore signals much dissolved substance. On to `COCc1nnc(N2CC(Oc3ccc(F)cc3Cl)C2)n1-c1ccc(OC)nc1`, for which the Activity with Homo sapiens [8] stood at 0.3 mg. This molecule also gave a half-life in data set [9] of 12 h. For the same molecule, the results for the clearance in [10], in [11] and in data set [16] were more than 8 mL/min/kg, 8 mL/min/kg and 36 mL/min/kg, respectively. This molecule yielded a solubility in [12] of 59 µg/mL (≈ 141 µM). Besides, in data set [13], the bioavailability was 80%. Further, the Ratio Ki in the data set filed under Homo sapiens [14] came out at 118; in the data set listed under Homo sapiens [15], 1050. The molecule also registered a Ki at Vasopressin V1b receptor of more than 10000 nM.
As usually defined, the IC50 is the concentration that inhibits the measured activity by half. A low value points to greater potency in that assay. As to `CCN(Cc1cccnc1)C(=O)c1ccc(Cl)c([C@]2(C)C(=O)N(Cc3ccc(OC)cc3OC)c3ccc(Cl)cc32)c1`, the IC50 on Oxytocin receptor [17] is 0.5 nM. Further, the Ki on Vasopressin V1a receptor [2] was 143 nM; on Oxytocin receptor [3] it was 1.6 nM; on Vasopressin V2 receptor [18] it was more than 1000 nM; on Vasopressin V1a receptor [20], 99 nM; on Vasopressin V2 receptor [21], more than 1000 nM. The Kb at Oxytocin receptor [19] was 3.39 nM.

Source of the values: ChEMBL document CHEMBL1250454, “Oral oxytocin antagonists” (J Med Chem, 2010).
